Series [1] has as its target T1, Human EGF receptor tyrosine kinase (Homo sapiens, UniProt P00533).
T1 construct: isolated from A431 human epidermoid carcinoma cells which overexpress EGF receptor; endogenous in cells; host or cells: A431 human epidermoid carcinoma cells; purified from the lysate on wheat germ agglutinin sepharose
Briefly: EGF receptor tyrosine kinase inhibition (phosphorylation of PLC-gamma 1 derived peptide). In kind it is biochemical. As for the experimental part: Purification of Epidermal Growth Factor Receptor Tyrosine Kinase—Human EGF receptor tyrosine kinase was isolated from A431 human epidermoid carcinoma cells which overexpress EGF receptor by the following methods. Cells were grown in roller bottles in 50% Delbuco's Modified Eagle and 50% HAM F-12 nutrient media (Gibco) containing 10% fetal calf serum. Approximately 10^9 cells were lysed in two volumes of buffer containing 20 mM 2-(4N-[2-hydroxyethyl]piperazin-1-yl)ethanesulfonic acid (hepes), pH 7.4, 5 mM ethylene glycol bis(2-aminoethyl ether) N,N,N′,N′-tetraacetic acid, 1% Triton X-100, 10% glycerol, 0.1 mM sodium orthovanadate, 5 mM sodium fluoride, 4 mM pyrophosphate, 4 mM benzamide, 1 mM dithiothreitol, 80 μg/mL aprotinin, 40 μg/mL leupeptin and 1 mM phenylmethylsulfonyl fluoride. After centrifugation at 25,000×g for 10 minutes, the supernatant was equilibrated for 2 h at 4° C. with 10 mL of wheat germ agglutinin sepharose that was previously equilibrated with 50 mM Hepes, […], 0.1% Triton X-100 and 150 mM NaCl, pH 7.5, (equilibration buffer). Contaminating proteins were washed from the resin with 1 M NaCl in equilibration buffer, and the enzyme was eluted with 0.5 M N-acetyl-1-D-glucosamine in equilibration buffer, followed by 1 mM urea. The enzyme was eluted with 0.1 mg/ml EGF.
The reaction was terminated by the addition of 2 mL of […] phosphoric acid and passed through a 2.5 cm phosphocellulose filter disc to bind the peptide. The filter was washed five times with 75 mM phosphoric acid and placed in a vial along with 5 mL of scintillation fluid (Ready gel Beckman).

Another series concerns the target T2, EGF receptor (Homo sapiens, UniProt P00533).
T2 construct: EGF receptor autophosphorylation in A431 human epidermoid carcinoma; endogenous in cells; host or cells: A431 human epidermoid carcinoma cells (ATCC)
The experiment in a line: Inhibition of EGF-induced autophosphorylation in A431 epidermoid carcinoma cells. The class given is cell-based. As for the experimental part:
(§1) Cells were grown to 100% confluency in 100 mm Petrie dishes (Corning). After the cells were treated for 5 minutes with either EGF (epidermal growth factor), PDGF, or bFGF (basic fibroblast growth factor) (20 ng/ml) or 1 ml of conditioned media from MDA-MB-231 cells, the media was removed and the monolayer scraped into 1 ml of ice cold lysis buffer (50 mM Hepes, pH 7.5, 150 mM NaCl, 10% glycerol, 1% triton X-100, 1 mM EDTA, 1 mM EGTA, 10 mM sodium pyrophosphate, 30 mM p-nitrophenyl phosphate, 1 mM orthovanadate, 50 mM sodium fluoride, 1 mM phenylmethylsulfonylfluoride, 10 μg/ml of aprotinin, and 10 μg/ml of leupeptin). The lysate was transferred to a microfuge tube (small centrifuge that holds 1-2 ml plastic centrifuge tubes), allowed to sit on ice 15 minutes and centrifuged 5 minutes at 10,000×g. The supernatant was transferred to a clean microfuge tube and 5 μg of antibody was added to designated samples. The tubes were rotated for 2 hours at […] after which 25 μl of protein A sepharose was added and then rotation continued for at least 2 more hours. The protein A separose was washed 5 times with 50 mM Hepes, pH 7.5, 150 mM NaCl, 10% glycerol and 0.02% sodium azide. […] The extract were transferred to a microfuge tube and heated to 100° C. for 5 minutes. […] Proteins in the gel were electrophoretically transferred to nitrocellulose and the membrane was washed once in 10 mM Tris buffer, pH 7.2, 150 mM NaCl, 0.01% Azide (TNA) and blocked overnight in TNA containing 5% bovine serum albumin and 1% ovalbumin (blocking buffer). The membrane was blotted for 2 hours with the primary antibody (1 μg/ml in blocking buffer) and then washed 2 times sequentially in TNA, TNA containing 0.05% Tween-20 and 0.05% Nonidet P-40 (commercially available detergent) and TNA.

In the next series the test system is erbB-2, 3, 4. Briefly: Inhibition of conditioned media-induced autophosphorylation in SK-BR-3 breast tumor cells. In kind it is cell-based, human. As to the method:
as §1

The subject of series [2] is B104-1-1 - NIH-3T3 fibroblasts transfected by the neu oncogene. The experiment in a line: Growth inhibition assay (antiproliferative), B104-1-1. The class given is cell-based. Particulars: Mus musculus; B104-1-1 cells.
Series [3] deals with SK-BR-3 - Human breast carcinoma overexpressing erbB-2 and erbB-3. Briefly: Growth inhibition assay (antiproliferative), SK-BR-3. Conditions: SK-BR-3 cells. The class given is cell-based.
Series [4] deals with MDA-468 - Human breast carcinoma overexpressing the EGF receptor. Briefly: cells. Particulars: read-out: Antiproliferative IC50 (nM). As to the method:
To obtain conditioned medium, MDA-MB-231 cells were grown to confluency in an 850 cm^2 roller bottle and the medium-replaced with 50 ml of serum-free medium. After 3 days the conditioned medium was removed, frozen down in aliquots and used as a heregulin source to stimulate erbB-2, 3, 4.
Cells (2×10^4) were seeded in 24-well plates (1.7×1.6 cm, flat bottom) in two mls of medium with or without various concentrations of drug. Plates were incubated for 3 days at 37° in a humidified atmosphere containing 5% CO2 in air. Cell growth was determined by cell count with a Coulter Model AM electronic cell counter (Coulter Electronics, Inc., Hialeah, Fla.).

Setting [5] is: Table 1, values in nM, read-out: EGF Receptor Tyrosine Kinase Inhibition IC50.
The mark [6] stands for this setting: enzyme value repeated in the autophosphorylation table, read-out: EGFR IC50.
Where [7] appears, read: SK-BR-3 cells, read-out: SKBR-3 IC50.
Setting [8] is: Table 1, values printed in μM, read-out: EGF Receptor Tyrosine Kinase Inhibition IC50.
Where [9] appears, read: Table 1, values in pM, read-out: EGF Receptor Tyrosine Kinase Inhibition IC50.

Data on 26 molecules can be found in patent US6521620B1, “Bicyclic compounds capable of inhibiting tyrosine kinases of the epidermal growth factor receptor family” (Warner-Lambert Company, priority 1994, dated 2003).

Structures can show the parent of a compound that is named as a salt. Where two headings read alike, the source gives them in different places.

T1 sequence (P00533 25-1210): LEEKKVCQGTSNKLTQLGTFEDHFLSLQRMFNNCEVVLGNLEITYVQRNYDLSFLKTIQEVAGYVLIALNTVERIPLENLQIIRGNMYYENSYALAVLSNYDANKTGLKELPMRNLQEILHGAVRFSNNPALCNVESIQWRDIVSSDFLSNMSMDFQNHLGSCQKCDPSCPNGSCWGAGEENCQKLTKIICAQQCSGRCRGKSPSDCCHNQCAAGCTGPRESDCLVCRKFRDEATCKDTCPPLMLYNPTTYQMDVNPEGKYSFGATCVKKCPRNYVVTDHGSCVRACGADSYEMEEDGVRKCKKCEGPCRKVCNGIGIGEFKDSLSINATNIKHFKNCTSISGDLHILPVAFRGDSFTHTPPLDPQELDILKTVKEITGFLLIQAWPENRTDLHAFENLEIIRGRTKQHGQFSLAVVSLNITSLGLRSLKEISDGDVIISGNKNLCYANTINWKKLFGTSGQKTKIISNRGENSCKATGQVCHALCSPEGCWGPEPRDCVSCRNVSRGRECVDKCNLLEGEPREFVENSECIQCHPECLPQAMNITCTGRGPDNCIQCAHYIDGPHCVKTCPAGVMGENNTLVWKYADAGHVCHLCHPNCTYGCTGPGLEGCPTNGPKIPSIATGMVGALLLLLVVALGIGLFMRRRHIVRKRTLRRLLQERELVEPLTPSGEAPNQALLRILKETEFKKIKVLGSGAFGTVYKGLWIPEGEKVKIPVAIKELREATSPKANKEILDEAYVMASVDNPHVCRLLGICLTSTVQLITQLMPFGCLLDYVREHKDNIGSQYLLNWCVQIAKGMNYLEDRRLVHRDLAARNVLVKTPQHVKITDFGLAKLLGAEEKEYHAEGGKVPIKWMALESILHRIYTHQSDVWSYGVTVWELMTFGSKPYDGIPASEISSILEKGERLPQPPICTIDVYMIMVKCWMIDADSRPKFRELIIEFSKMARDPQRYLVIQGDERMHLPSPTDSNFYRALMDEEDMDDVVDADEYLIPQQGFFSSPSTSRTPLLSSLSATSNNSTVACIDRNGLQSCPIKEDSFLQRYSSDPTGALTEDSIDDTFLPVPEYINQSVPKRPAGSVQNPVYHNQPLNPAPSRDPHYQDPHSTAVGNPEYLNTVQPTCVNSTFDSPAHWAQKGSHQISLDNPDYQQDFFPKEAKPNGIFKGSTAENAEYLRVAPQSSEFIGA
T2 sequence (P00533 25-1210): as above

Consider `Fc1ccc2ncnc(Nc3cccc(Br)c3)c2n1` [Example 4, 4-(3-Bromoanilino)-6-fluoropyrido[3,2-d]pyrimidine], for which the IC50 is 225 nM in series [1] (setting [5]); 225 nM in series [1] (setting [6]); > 1000 nM against EGF receptor; > 10000 nM in the series with erbB-2, 3, 4 (setting [7]).

For `Nc1ccc2ncnc(Nc3cccc(Br)c3)c2n1` [Example 6, 4-(3-Bromoanilino)-6-aminopyrido[3,2-d]pyrimidine], the IC50 in series [1] (setting [5]) was found to be 7.6 nM; in series [1] (setting [6]), 7.6 nM; on EGF receptor it was 53 nM; with erbB-2, 3, 4 (setting [7]) it was 2660 nM.

Turning to `CNc1ccc2ncnc(Nc3cccc(Br)c3)c2n1` [Example 7, 4-(3-Bromoanilino)-6-methylaminopyrido[3,2-d]pyrimidine], the half-maximal inhibitory concentration (IC50) in series [1] (setting [5]) was found to be 3.1 nM; in series [1] (setting [6]), 3.1 nM; on EGF receptor, 20 nM; with erbB-2, 3, 4 (setting [7]) it was 100 nM.

With `CN(C)c1ccc2ncnc(Nc3cccc(Br)c3)c2n1` [Example 8, 4-(3-Bromoanilino)-6-dimethylaminopyrido[3,2-d]pyrimidine], the IC50 was 9.6 nM in series [1] (setting [5]); 9.6 nM in series [1] (setting [6]); 32 nM on EGF receptor; 71 nM in the series with erbB-2, 3, 4 (setting [7]).

For `Nc1cc2ncnc(Nc3cccc([N+](=O)[O-])c3)c2cn1` [Example 22, 7-Amino-4-(3-nitroanilino)pyrido[4,3-d]pyrimidine], the IC50 in series [1] (setting [5]) was 39 nM; in series [1] (setting [6]), 39 nM; at EGF receptor it was 252 nM; in the series on erbB-2, 3, 4 (setting [7]), ~1500 nM.

Take `Nc1cc2ncnc(Nc3ccccc3C(F)(F)F)c2cn1` [Example 30, 7-Amino-4-(2-trifluoromethylanilino)pyrido[4,3-d]pyrimidine]: the melting point is 126 to 130 °C (dec.). In addition, in series [1] (setting [8]), the IC50 stood at 10000 nM.

For the molecule `C[C@@H](Nc1ncnc2ccncc12)c1ccccc1` [Example 39, 4-([R]-1-Phenylethylamino)pyrido[4,3-d]pyrimidine], the melting point was 138 to 138.5 °C. In addition, the IC50 in series [1] (setting [5]) came out at 590 nM.

Regarding `C[C@@H](Nc1ncnc2cc(N)ncc12)c1ccccc1` [Example 41, 7-Amino-4-([R]-1-phenylethylamino)pyrido[4,3-d]pyrimidine], the melting point was in the range of 231.8 to 232.1 °C. Besides, in series [1] (setting [5]), the concentration for half-maximal inhibition (IC50) came out at 220 nM.

For `COc1cc2c(Nc3cccc(Br)c3)ncnc2cn1` [Example 59, 4-(3-Bromoanilino)-6-methoxypyrido[3,4-d]pyrimidine], the IC50 in series [1] (setting [5]) is 2.6 nM; in series [1] (setting [6]) it was 2.6 nM; on EGF receptor it was 12 nM; in the series with erbB-2, 3, 4 (setting [7]) it was < 10 nM.

As to `CNc1cc2c(Nc3cccc(Br)c3)ncnc2cn1` [Example 60, 4-(3-Bromoanilino)-6-methylaminopyrido[3,4-d]pyrimidine], the IC50 in series [1] (setting [9]) is 0.008 nM; in series [1] (setting [6]), 0.008 nM; against EGF receptor it was 13 nM; in the series on erbB-2, 3, 4 (setting [7]), < 10 nM; in series [2] it was 2100 nM; in series [3], 600 nM. Further, the IC50 in series [4] turned out to be 3000 nM.

For `CN(C)c1cc2c(Nc3cccc(Br)c3)ncnc2cn1` [Example 61, 4-(3-Bromoanilino)-6-dimethylaminopyrido[3,4-d]pyrimidine], the IC50 was determined as 0.006 nM in series [1] (setting [9]); 0.006 nM in series [1] (setting [6]); 21 nM on EGF receptor; 39 nM in the series with erbB-2, 3, 4 (read-out: SKBR-3 IC50 nM, SK-BR-3 cells); 1000 nM in series [2]; 900 nM in series [3]. The IC50 in series [4] came out at 12000 nM.

As to `c1ccc(CNc2ncnc3cnccc23)cc1` [Example 62, 4-(Benzylamino)pyrido[3,4-d]pyrimidine], the IC50 in series [1] (setting [8]) amounted to 6100 nM.

With `Brc1cccc(Nc2ncnc3ncccc23)c1` [Example 63, 4-(3-Bromoanilino)pyrido[2,3-d]pyrimidine], the IC50 in series [1] (setting [8]) was determined as 6100 nM.

On to `Fc1ccc2c(Nc3cccc(Br)c3)ncnc2n1` [Example 64, 4-(3-Bromoanilino)-7-fluoropyrido[2,3-d]pyrimidine], for which the IC50 in series [1] (setting [5]) came out at 11 nM.

Regarding `CN(C)c1ccc2c(Nc3cccc(Br)c3)ncnc2n1` [Example 67, 4-(3-Bromoanilino)-7-dimethylaminopyrido[2,3-d]pyrimidine], the IC50 in series [1] (setting [8]) turned out to be 6100 nM.

With `COc1ccc2c(Nc3cccc(Br)c3)ncnc2n1` [Example 68, 4-(3-Bromoanilino)-7-methoxypyrido[2,3-d]pyrimidine], in series [1] (setting [5]), the IC50 is 263 nM.

Regarding `CNc1ncc2c(NCc3ccccc3)ncnc2n1` [Example 69, 4-Benzylamino-7-methylaminopyrimido[4,5-d]pyrimidine], in series [1] (setting [8]), the IC50 stood at 7000 nM.

Turning to `NNc1ncc2c(NCc3ccccc3)ncnc2n1` [Example 70, 4-Benzylamino-7-hydrazinopyrimido[4,5-d]pyrimidine], the IC50 in series [1] (setting [5]) is 473 nM; in series [1] (setting [6]) it was 11 nM; with erbB-2, 3, 4 (setting [7]), < 10 nM.

Take `Brc1cccc(Nc2ncnc3ccsc23)c1` [Example 71, 4-(3-Bromoanilino)thieno[3,2-d]pyrimidine Hydrochloride]: in series [1], 11 nM corresponded to half-maximal inhibition (IC50).

For `c1ccc(CNc2ncnc3ccsc23)cc1` [Example 72, 4-Benzylaminothieno[3,2-d]pyrimidine], the IC50 in series [1] (setting [5]) stood at 35 nM.

In the case of `Brc1cccc(Nc2ncnc3sccc23)c1` [Example 73, 4-(3-Bromoanilino)thieno[2,3-d]pyrimidine], in series [1], the IC50 is 36 nM.

Regarding `c1ccc(CNc2nc[nH]c3nccc2-3)cc1` [Example 74, 4-Benzylaminopyrrolo[2,3-d]pyrimidine], the IC50 in series [1] (setting [8]) is 11500 nM; in series [1] (setting [6]), 55 nM; in the series on erbB-2, 3, 4 (setting [7]), > 1000 nM.

As to `Brc1cccc(Nc2ncnc3[nH]cnc23)c1` [Example 75, N^6-(3-Bromophenyl)adenine], the IC50 in series [1] (setting [5]) amounted to 55 nM.

As for `c1ccc(CNc2ncnc3nc[nH]c23)cc1` [Example 76, N^6-Benzyladenine], in series [1] (setting [8]), the IC50 was determined as 10000 nM.

As to `COc1ccc(Nc2ncnc3cc(N)ncc23)cc1` [Example 78, 7-Amino-4-(4-methoxyanilino)pyrido[4,3-d]pyrimidine], in series [1] (setting [5]), the IC50 was 670 nM.

For `Brc1cccc(Nc2ncnc3cnc(N4CCCCC4)cc23)c1` [Example 79, 4-(3-Bromoanilino)-6-(piperidin-1-yl)pyrido[3,4-d]pyrimidine], the IC50 in series [1] (setting [5]) is 6.7 nM.

The IC50 is the concentration at which inhibition is half-maximal. A word on the melting point: it is the temperature of the solid-liquid transition.
